The values below are quoted from earlier work in patent US7879746B2, “Hydrophilic polypropylene fibers having antimicrobial activity” (3M Innovative Properties Company, priority 1999, dated 2011).

For this data set the following is noted: 100% active, glossary value.
Turning to sorbitan monopalmitate [SPAN™ 40], the HLB is reported as 6.7. Take sorbitan monostearate [ARLACEL™ 60]: the HLB was 4.3.

Turning to “sorbitan sequioleate (1½ mole adduct) [ARLACEL™ 83]”, the HLB is given as 3.7.
